From PubChem BioAssay (NCI) come the findings set out here.

Where “and” joins values, the source holds several entries; their conditions need not be identical. Identical values can stand only once.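 Dose response: 5 concentrations. Exposure: 48 h. Format: 96-well plates. Endpoint: linear interpolation; highest concentration if not reached. Abbreviation: GI50, concentration required for 50% inhibition of growth. Definition used: TGI = concentration required for complete inhibition of growth.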

Test systems include MDA-N; DLD-1 colon; DMS 114 small cell lung; LXFL 529 NSCLC; M19-MEL melanoma; SNB-78 CNS; XF 498 CNS; HOP-18 NSCLC; RXF-631 renal; P388 leukemia; SN12K1 renal.
Holding throughout (assay): NCI tumour cell line growth inhibition, 48 h

The compound `Nc1ccn(C2OC(COP(=O)(O)O)C(O)C2O)c(=O)n1` (configuration not stated) displayed a TGI in the test with MDA-N greater than 100 µM.
For the compound `O=C(CC1(O)C(=O)Nc2ccccc21)c1ccc(O)cc1O` (configuration not stated), the TGI in the test with DLD-1 colon, in the test with DMS 114 small cell lung, in the test with LXFL 529 NSCLC, in the test on M19-MEL melanoma, in the test on SNB-78 CNS and in the test on XF 498 CNS was greater than 100 µM in each case.
For `CCOC(=O)CCc1c(C)c2ccc(O)cc2oc1=O`, in the test with MDA-N, the TGI is greater than 100 µM.
`CC(=O)[CH-]C(C)=O.CC(=O)[CH-]C(C)=O.CC(=O)[CH-]C(C)=O.[Cl-].[Hf+4]`: in the test with DMS 114 small cell lung, the GI50 is greater than 100 µM and the TGI was greater than 100 µM.
`O=C1NC(=O)[C@H]2C3C=CC([C@@H]12)[C@@H]1C(=O)NC(=O)[C@H]31` returned a TGI in the test on MDA-N greater than 100 µM.
Compound `OCC1OC(O)C(N=Cc2ccc3c(c2)OCO3)C(O)C1O` (configuration not stated) came in with a TGI in the test with MDA-N greater than 100 µM.
As for `COc1ccc(C2c3cc4c(cc3OC(O)(CO)C2C(=O)O)OCO4)c(OC)c1OC` (configuration not stated) (tested in a mixture with another compound), the TGI in the test on DLD-1 colon, in the test with DMS 114 small cell lung, in the test with HOP-18 NSCLC, with M19-MEL melanoma, in the test with SNB-78 CNS and in the test on XF 498 CNS was greater than 100 µM in each case.
Consider `CC1(C)CC2=NOS3=C2C(=NO3)C1c1ccccn1` (configuration not stated), for which the TGI with MDA-N worked out at 92.9 µM.
As for `O=C(CCc1ccc(O)c(O)c1)c1ccc(O)c(O)c1O`, the TGI in the test on MDA-N was 32.2 µM.
`O=C(O/N=C1/CCC/C1=C\c1ccccc1)c1ccccc1`: the TGI is greater than 100 µM with DLD-1 colon; greater than 100 µM with DMS 114 small cell lung; greater than 100 µM with HOP-18 NSCLC; 89.9 µM with LXFL 529 NSCLC; greater than 100 µM with SNB-78 CNS.
As to `COc1ccc(C(=O)O)c2c(=O)c3ccccc3[nH]c12`, the TGI in the test with LXFL 529 NSCLC, in the test with M19-MEL melanoma, with SNB-78 CNS and in the test on XF 498 CNS was greater than 100 µM in each case.
Regarding `Cc1cc(-c2cc(C)c(O)c(C(C)(C)C)c2)cc(C(C)(C)C)c1O`, the TGI in the test on MDA-N is 21.2 µM and 27.9 µM.
With `CCOC(=O)c1ccc(C(O)CC(=O)OC(C)(C)C)[nH]1` (configuration not stated), in the test on MDA-N, the GI50 is 17.8 µM and the TGI is 60.3 µM.
`Cn1cc(C(=O)/C(Cl)=C(\Cl)C(=O)O)c2ccccc21`: the TGI in the test with DLD-1 colon, in the test on DMS 114 small cell lung, in the test on M19-MEL melanoma, in the test with RXF-631 renal, with SNB-78 CNS and in the test with XF 498 CNS was greater than 100 µM each time.
For the compound `CO/C=C/c1cc2c(cc1C(OC)OC)OCO2`, the TGI in the test on DLD-1 colon was greater than 100 µM; in the test on DMS 114 small cell lung it was greater than 100 µM; in the test with M19-MEL melanoma it was greater than 100 µM; in the test on RXF-631 renal, greater than 100 µM; in the test with SNB-78 CNS it was greater than 100 µM; with XF 498 CNS it was 84.8 µM.
Turning to `O=C1OC(c2ccccc2)(c2ccccc2)CC1CN1CCOCC1` (configuration not stated), the TGI turned out to be 31.8 µM with DLD-1 colon; 32.6 µM in the test on DMS 114 small cell lung; 27.7 µM in the test on HOP-18 NSCLC; 26.9 µM in the test on LXFL 529 NSCLC; 31 µM in the test with M19-MEL melanoma; 43.8 µM in the test on RXF-631 renal.
On to `N=c1oc2cc(O)c(O)cc2cc1C(N)=O`, for which the TGI in the test on DLD-1 colon, in the test on DMS 114 small cell lung, in the test with LXFL 529 NSCLC, in the test with M19-MEL melanoma, in the test with RXF-631 renal and with SNB-78 CNS was greater than 100 µM throughout. In the test on XF 498 CNS, this compound displayed a TGI greater than 100 µM.
Consider `CCC[CH2][Sn]([CH2]CCC)([O]C(=O)c1cccc(F)c1F)[O][Sn]([CH2]CCC)([CH2]CCC)[O]C(=O)c1cccc(F)c1F`, for which the GI50 in the test on DLD-1 colon is 0.182 µM; with DMS 114 small cell lung, 0.0627 µM; in the test on HOP-18 NSCLC, 0.551 µM; in the test on LXFL 529 NSCLC, 0.0222 µM; in the test on M19-MEL melanoma, 0.141 µM; in the test on MDA-N, 0.223 µM. For the same compound, the figures for the GI50 in the test on RXF-631 renal, with SNB-78 CNS and with XF 498 CNS were 0.0409 µM, 0.139 µM and 0.173 µM, respectively. In addition, the TGI in the test with DLD-1 colon came to 0.744 µM; in the test with DMS 114 small cell lung, 0.204 µM; with HOP-18 NSCLC, 1.51 µM; in the test with LXFL 529 NSCLC, 0.157 µM; in the test on M19-MEL melanoma it was 0.689 µM; in the test with MDA-N, 1.16 µM. Further, the TGI in the test on RXF-631 renal came out at 0.398 µM; in the test on SNB-78 CNS, 1.51 µM; in the test on XF 498 CNS, 0.314 µM.
For the compound `Cc1ccc(NC(=O)/C(=N/NC(=O)CC#N)C2C(=O)N(c3ccccc3)N=C2N)cc1C` (configuration not stated), the TGI in the test with DLD-1 colon, with DMS 114 small cell lung, with HOP-18 NSCLC, in the test on LXFL 529 NSCLC, in the test with M19-MEL melanoma and in the test with SNB-78 CNS was greater than 100 µM each time. This compound also had a TGI with XF 498 CNS greater than 100 µM.
`NC(=S)N/N=C1\C(=O)N(c2cccc([N+](=O)[O-])c2)C(=O)C1C(=O)Nc1cccc([N+](=O)[O-])c1` (configuration not stated): the TGI in the test with DLD-1 colon, in the test on DMS 114 small cell lung, in the test on HOP-18 NSCLC, in the test on LXFL 529 NSCLC, in the test on M19-MEL melanoma and in the test on SNB-78 CNS was greater than 100 µM in each case.
`NC1=NN(c2ccccc2)C(=O)C1C(=O)C(=O)Nc1cccc(C(F)(F)F)c1` (configuration not stated): the TGI in the test on DLD-1 colon, in the test with DMS 114 small cell lung, with HOP-18 NSCLC, in the test on LXFL 529 NSCLC, in the test on M19-MEL melanoma and with RXF-631 renal was greater than 100 µM in each case. Further, the TGI with SNB-78 CNS and in the test on XF 498 CNS was greater than 100 µM each time.
For `Nc1nc(F)nc2c1ncn2C1OC(COP(=O)(O)O)C(O)C1O` (configuration not stated), the TGI in the test on DLD-1 colon is greater than 1080 µM; in the test on DMS 114 small cell lung, 626 µM; with HOP-18 NSCLC, 552 µM; in the test on M19-MEL melanoma, 877 µM; with MDA-N, 723 µM; in the test on P388 leukemia, 150 µM. Besides, the values for the TGI in the test with SN12K1 renal, with SNB-78 CNS and in the test on XF 498 CNS were 277 µM, 636 µM and 152 µM, respectively.
In turn, `CC(=O)NC(Cc1c[nH]c2ccccc12)C(=O)O` (configuration not stated) had a TGI with MDA-N greater than 100 µM.
In the case of `CC(=O)Oc1cc2c(=O)oc3c(OC(C)=O)c(OC(C)=O)c(OC(C)=O)c4c(=O)oc(c1OC(C)=O)c2c34`, the TGI in the test on DLD-1 colon was greater than 100 µM; with DMS 114 small cell lung it was 58 µM; with HOP-18 NSCLC it was greater than 100 µM; in the test with LXFL 529 NSCLC, greater than 100 µM; in the test with M19-MEL melanoma it was 40.6 µM; in the test with RXF-631 renal it was 78.5 µM. In addition, the results for the TGI in the test with SNB-78 CNS and in the test on XF 498 CNS were greater than 100 µM and 76.5 µM, respectively.
Take `O=C1C=CC(=O)N1c1ccc2c(c1)Cc1cc(NC(=O)C(F)(F)F)ccc1-2`: the TGI in the test on MDA-N was determined as 32.5 µM.
In the test with MDA-N, `C[C@]12CC[C@@H]3c4ccc(OCC(=O)O)cc4CC[C@H]3[C@@H]1CCC2=O` had a TGI greater than 100 µM.
For the compound `CC1CC(C)C(=O)C(C(=O)CC2CC(=O)NC2=O)C1` (configuration not stated), the TGI with DLD-1 colon, with DMS 114 small cell lung, in the test on HOP-18 NSCLC, with LXFL 529 NSCLC, in the test on M19-MEL melanoma and in the test on RXF-631 renal was greater than 100 µM each time. Also, the TGI in the test with SNB-78 CNS and in the test on XF 498 CNS was greater than 100 µM throughout.
In the case of `CCC(=O)Nc1ccc2c(c1)CN1C(=O)c3ccccc3C1=N2`, in the test with MDA-N, the GI50 is greater than 100 µM and the TGI is greater than 100 µM.
As for `CC1=Cc2cc3[n-]c(cc4nc(cc5[n-]c(cc1n2)c(C)c5CCC(=O)O)C(CCC(=O)O)=C4C)cc3C.[Cu+2]`, the GI50 was greater than 42.6 µM in the test on DLD-1 colon; > 1 µM and 11.5 µM with DMS 114 small cell lung; greater than 100 µM in the test on HOP-18 NSCLC; > 1 µM and 12.4 µM with LXFL 529 NSCLC; greater than 100 µM in the test on M19-MEL melanoma; 62.4 µM in the test on MDA-N. Also, the GI50 in the test on SNB-78 CNS is > 1 µM and 2.07 µM; in the test with XF 498 CNS, > 1 µM and 10.2 µM. Moreover, the TGI in the test on DLD-1 colon was greater than 93 µM; in the test with DMS 114 small cell lung, greater than 44.9 µM; in the test with HOP-18 NSCLC, greater than 100 µM; with LXFL 529 NSCLC, greater than 100 µM; with M19-MEL melanoma it was greater than 100 µM; with MDA-N it was greater than 100 µM. Besides, the TGI with SNB-78 CNS is > 1 µM and 8.92 µM; in the test with XF 498 CNS, > 1 µM and 26.5 µM.
Turning to `O=C1C(Br)=C(c2ccccc2)C(c2ccccc2)=C1c1ccccc1`, the TGI in the test on DLD-1 colon came out at 3.66 µM; in the test with DMS 114 small cell lung, 5.03 µM; with HOP-18 NSCLC, 14.9 µM; in the test on LXFL 529 NSCLC, 2.84 µM; in the test with M19-MEL melanoma, 5.58 µM; with MDA-N it was 9.61 µM. Moreover, the TGI amounted to 13.1 µM in the test with RXF-631 renal, 4.26 µM in the test on SNB-78 CNS and 3.65 µM with XF 498 CNS.
Regarding `C/C(=N\[N+](C)(C)C)C(c1ccccc1)C1(c2ccccc2)C(c2ccccc2)=C1c1ccccc1` (configuration not stated), the TGI is greater than 100 µM with DLD-1 colon, greater than 100 µM in the test with M19-MEL melanoma, greater than 100 µM with SNB-78 CNS and 50.4 µM with XF 498 CNS.
For `O=C(Nc1ccc(N=Nc2ccccc2)cc1)Sc1ccccc1C(=O)O`, the TGI in the test with LXFL 529 NSCLC and with SNB-78 CNS was greater than 100 µM each time.
Regarding `COc1ccc(/C(Cl)=C(\C=O)c2cc(OC)c(OC)c(OC)c2)cc1OC`, the TGI in the test on DMS 114 small cell lung was 85.9 µM; with HOP-18 NSCLC, 58.4 µM; in the test with LXFL 529 NSCLC it was greater than 100 µM; in the test with M19-MEL melanoma, greater than 100 µM; in the test with MDA-N it was greater than 100 µM; in the test on RXF-631 renal, 65.4 µM. Also, in the test with SNB-78 CNS, the TGI was found to be 88.1 µM.
Regarding `CCC12CC[C@H](C#N)N3CCc4c(n(c5ccccc45)C(=O)C1)C32` (some centres not stated), the TGI was determined as 43.8 µM in the test with DLD-1 colon; 33.7 µM in the test on LXFL 529 NSCLC; 73.2 µM with M19-MEL melanoma; 45.1 µM in the test with RXF-631 renal; 51.9 µM in the test with SNB-78 CNS; 36.5 µM in the test with XF 498 CNS.
Consider `O[C@H]1[C@H]2[C@H](O)CCCN2C[C@H]1O`, for which the TGI with DLD-1 colon, in the test with DMS 114 small cell lung, with HOP-18 NSCLC, with LXFL 529 NSCLC, in the test with M19-MEL melanoma and in the test on SNB-78 CNS was greater than 100 µM throughout. The same compound showed a TGI in the test with XF 498 CNS greater than 100 µM.
